Measured values taken from US10144742B2 (Millennium Pharmaceuticals, Inc., priority 2014, dated 2018).
pIC50: −log10 of the molar value.

Tests used:
[1] = biological target: hNAMPT protein (Homo sapiens (Human), UniProt P43490); test: NAMPT enzyme assay (TR-FRET/HTRF, BodiPY ligand, anti 6His-Tb); format: binding; conditions: for inhibition at 1 µM: NAMPT inhibition at compound concentration 1 μM, read-out: Percent Inhibition; for pIC50: NAMPT inhibition, IC50 range class, read-out: IC50
Outline: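 TR-FRET binding assay in which His-tagged human NAMPT with anti-6His-Tb is displaced by compound from a BodiPY ligand, incubated 1 h at rt in the dark. Excitation was at 320 nm, with the 520/486 nm emission ratio read. IC50 was fitted from inhibition relative to DMSO controls.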

[2] = tested on: PC3 cells; test: PC3 growth inhibition (Cell-titer glo, 72 hours); format: cell-based; conditions: Homo sapiens, PC-3; compound concentration 1.667 μM; PC3 cells, 72 hours, Cell-titer glo; read-out: Percent Inhibition (PC3 growth inhibition)
Outline: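 PC3 cells in RPMI1640 seeded overnight at 37 °C, 5% CO2, then exposed to compound diluted in AIM serum-free medium for 72 h. Viability by CellTiter-Glo luminescence vs DMSO controls; single-concentration % remaining viability (1 μM or 1.667 μM), or GI50/LD50 from curves.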

Chain of hNAMPT protein (P43490 whole entry): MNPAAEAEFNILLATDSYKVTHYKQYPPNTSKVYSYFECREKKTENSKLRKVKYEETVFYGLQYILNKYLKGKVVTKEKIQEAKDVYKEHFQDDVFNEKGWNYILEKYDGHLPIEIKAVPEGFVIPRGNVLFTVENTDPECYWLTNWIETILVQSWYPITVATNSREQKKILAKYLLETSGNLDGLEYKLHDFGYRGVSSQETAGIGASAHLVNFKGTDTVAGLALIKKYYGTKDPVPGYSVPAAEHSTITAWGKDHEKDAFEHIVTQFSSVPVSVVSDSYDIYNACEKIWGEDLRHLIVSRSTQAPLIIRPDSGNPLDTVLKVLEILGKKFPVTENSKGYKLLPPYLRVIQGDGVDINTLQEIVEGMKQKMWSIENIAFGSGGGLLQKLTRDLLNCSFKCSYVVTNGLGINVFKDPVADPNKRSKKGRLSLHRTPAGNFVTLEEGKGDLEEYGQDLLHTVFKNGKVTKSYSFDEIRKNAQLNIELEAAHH

Row | Compound | inhibition at 1 µM [1] [%] | pIC50 [1] | inhibition at 1.667 µM [2] [%]
1 | CN1CCCC(Oc2nc3ccc(C(=O)NCCCc4ncc[nH]4)cc3nc2-c2ccc(F)cc2)C1 (stereo not drawn) [Compound I-423, 3-(4-fluorophenyl)-N-[3-(1H-imidazol-2-yl)propyl]-2-[(1-methylpiperidin-3-yl)oxy]quinoxaline-6-carboxamide] | 88 | 6.30 to 7.00 | 2
2 | CC(C)Oc1nc2ccc(C(=O)NCCc3cncn3C)cc2nc1-c1ccc(F)cc1 [Compound I-424, 3-(4-fluorophenyl)-2-isopropoxy-N-[2-(1-methyl-1H-imidazol-5-yl)ethyl]quinoxaline-6-carboxamide] | 76 | 6.30 to 7.00 | 1
3 | C#Cc1cccc(-c2nc3cc(C(=O)NCCCc4ncc[nH]4)ccc3nc2-c2ccc(F)cc2)c1 [Compound I-425, 3-(3-ethynylphenyl)-2-(4-fluorophenyl)-N-[3-(1H-imidazol-2-yl)propyl]quinoxaline-6-carboxamide] | 87 | 6.30 to 7.00 | 3
4 | COc1cc(-c2nc3cc(C(=O)NCc4ccc5nccn5c4)ccc3nc2OC(C)C)ccc1F [Compound I-426, 3-(4-fluoro-3-methoxyphenyl)-N-(imidazo[1,2-a]pyridin-6-ylmethyl)-2-isopropoxyquinoxaline-6-carboxamide] | 99 | > 7.00 | 0
5 | COC1CC(Oc2nc3ccc(C(=O)NCCCc4ncc[nH]4)cc3nc2-c2ccc(F)cc2)C1 (stereo not drawn) [Compound I-427, 3-(4-fluorophenyl)-N-[3-(1H-imidazol-2-yl)propyl]-2-[(3-methoxycyclobutyl)oxy]quinoxaline-6-carboxamide] | 99 | > 7.00 | 2
6 | Cc1cc(C)n(-c2nc3ccc(C(=O)NCCCc4ncc[nH]4)cc3nc2-c2ccc(F)cc2)n1 [Compound I-428, 2-(3,5-dimethyl-1H-pyrazol-1-yl)-3-(4-fluorophenyl)-N-[3-(1H-imidazol-2-yl)propyl]quinoxaline-6-carboxamide] | 71 | 6.30 to 7.00 | 2
7 | O=C(NCCCc1ncc[nH]1)c1ccc2nc(-c3ccc(F)cc3)c(-c3cn[nH]c3)nc2c1 [Compound I-429, 2-(4-fluorophenyl)-N-[3-(1H-imidazol-2-yl)propyl]-3-(1H-pyrazol-4-yl)quinoxaline-6-carboxamide] | 90 | 6.30 to 7.00 | 76
8 | O=C(NCCCc1ncc[nH]1)c1ccc2nc(OC3CCCNC3)c(-c3ccc(F)cc3)nc2c1 (stereo not drawn) [Compound I-430, 3-(4-fluorophenyl)-N-[3-(1H-imidazol-2-yl)propyl]-2-(piperidin-3-yloxy)quinoxaline-6-carboxamide] | 98 | > 7.00 | 3
9 | O=C(NCCCc1ncc[nH]1)c1ccc2nc(-c3ccc(F)cc3)c(-c3ccc(Cl)c(F)c3)nc2c1 [Compound I-431, 3-(4-chloro-3-fluorophenyl)-2-(4-fluorophenyl)-N-[3-(1H-imidazol-2-yl)propyl]quinoxaline-6-carboxamide] | 90 | 6.30 to 7.00 | 2
10 | O=C(NCCCc1ncc[nH]1)c1ccc2nc(-c3ccc(F)cc3)c(-c3cc(OC(F)(F)F)ccc3Cl)nc2c1 [Compound I-432, 3-[2-chloro-5-(trifluoromethoxy)phenyl]-2-(4-fluorophenyl)-N-[3-(1H-imidazol-2-yl)propyl]quinoxaline-6-carboxamide] | 79 | 6.30 to 7.00 | 2
11 | Cc1ccc(-c2nc3cc(C(=O)NCCCc4ncc[nH]4)ccc3nc2-c2ccc(F)cc2)cc1C [Compound I-433, 3-(3,4-dimethylphenyl)-2-(4-fluorophenyl)-N-[3-(1H-imidazol-2-yl)propyl]quinoxaline-6-carboxamide] | 79 | 6.30 to 7.00 | 3
12 | O=C(NCCCc1ncc[nH]1)c1ccc2nc(-n3cccn3)c(-c3ccc(F)cc3)nc2c1 [Compound I-434, 3-(4-fluorophenyl)-N-[3-(1H-imidazol-2-yl)propyl]-2-(1H-pyrazol-1-yl)quinoxaline-6-carboxamide] | 76 | 6.30 to 7.00 | 3
13 | CC(C)Oc1nc2ccc(C(=O)NCCCc3ncc[nH]3)cc2nc1-c1ccc(F)c(Cl)c1 [Compound I-435, 3-(3-chloro-4-fluorophenyl)-N-[3-(1H-imidazol-2-yl)propyl]-2-isopropoxyquinoxaline-6-carboxamide] | 93 | > 7.00 | 0
14 | Nc1ccc(CCCNC(=O)c2ccc3nc(N4CCCCC4)c(-c4ccc(F)cc4)nc3c2)cn1 [Compound I-436, N-[3-(6-aminopyridin-3-yl)propyl]-3-(4-fluorophenyl)-2-(piperidin-1-yl)quinoxaline-6-carboxamide] | 83 | 6.30 to 7.00 | 2
15 | CCOc1ccc(Cl)c(-c2nc3cc(C(=O)NCCCc4ncc[nH]4)ccc3nc2-c2ccc(F)cc2)c1 [Compound I-437, 3-(2-chloro-5-ethoxyphenyl)-2-(4-fluorophenyl)-N-[3-(1H-imidazol-2-yl)propyl]quinoxaline-6-carboxamide] | 71 | 6.30 to 7.00 | 3
16 | O=C(NCCCc1ncc[nH]1)c1ccc2nc(OCC3CCCO3)c(-c3ccc(F)cc3)nc2c1 (stereo not drawn) [Compound I-438, 3-(4-fluorophenyl)-N-[3-(1H-imidazol-2-yl)propyl]-2-(tetrahydrofuran-2-ylmethoxy)quinoxaline-6-carboxamide] | 99 | > 7.00 | 2
17 | O=C(NCCCc1ncc[nH]1)c1ccc2nc(OCc3ccccc3)c(-c3ccc(F)cc3)nc2c1 [Compound I-439, 2-(benzyloxy)-3-(4-fluorophenyl)-N-[3-(1H-imidazol-2-yl)propyl]quinoxaline-6-carboxamide] | 93 | > 7.00 | 3
18 | CCOc1nc2ccc(C(=O)NCCCc3ncc[nH]3)cc2nc1-c1ccc(F)cc1 [Compound I-440, 2-ethoxy-3-(4-fluorophenyl)-N-[3-(1H-imidazol-2-yl)propyl]quinoxaline-6-carboxamide] | 94 | > 7.00 | 3
19 | O=C(NCCCc1cnccn1)c1ccc2nc(N3CCCCC3)c(-c3ccc(F)cc3)nc2c1 [Compound I-441, 3-(4-fluorophenyl)-2-(piperidin-1-yl)-N-[3-(pyrazin-2-yl)propyl]quinoxaline-6-carboxamide] | 50 | 6.00 to 6.30 | > 99
20 | O=C(NCCCc1ncc[nH]1)c1ccc2nc(OCCc3cn[nH]c3)c(-c3ccc(F)cc3)nc2c1 [Compound I-442, 3-(4-fluorophenyl)-N-[3-(1H-imidazol-2-yl)propyl]-2-[2-(1H-pyrazol-4-yl)ethoxy]quinoxaline-6-carboxamide] | > 99 | > 7.00 | 3
